From US20240408223A1 (REGENERON PHARMACEUTICALS, INC., priority 2017, published 2024)
Values after ≈ are worked out from the molar mass of the structure shown. Each block holds one compound with its values, some of them ahead of it. *1 amine or outer side, *2 acyl side, *3 side chain or, on linkers, in order; H or OH if unused. Where a SMILES comes first, the peptide text is derived from it. [ ]: non-standard residue; d: D form. The star is where a group is joined. X4 = C[N+](C)(C)CCNC(=O)CCOCCOCCOCCOCCn1nnc2c1CCCCCC2OCC(=O)*; Dolaproine = CO[C@@H]([C@@H]1CCCN1)[C@@H](C)C(=O)O; X3 = O=C(COC1CCCCCc2c1nnn2CCOCCOCCOCCOCCOCCO)*; Dil = CC[C@H](C)[C@H](NC)[C@@H](CC(=O)O)OC; PABC = O=C(OCc1ccc(N[*:1])cc1)[*:2]; DBCO = C1#Cc2ccccc2N(*)Cc2ccccc21; X1 = C[C@@H](N*)[C@@H](O)c1ccccc1; Cit = NC(=O)NCCC[C@H](N)C(=O)O; PEG4 = NCCOCCOCCOCCOCCC(=O)O; Suc = O=C(CCC(=O)[*:2])[*:1]; NMeV = CN[C@H](C(=O)O)C(C)C

Columns and labels:
[1] = physchem
Protocol: (§1) The DMSO solution (1 mg/mL, 0.5 mL) was diluted with water (4.5 mL) to generate solution A (0.1 mg/mL, 5 mL, 0.5 mg). Solution A (0.1 mg/mL, 0.5 mL) was diluted with water (4.5 mL) to generate solution B (0.01 mg/mL, 5 mL, 0.05 mg). Solution B (0.01 mg/mL, 0.5 mL) was diluted with water (4.5 mL) to generate solution C (1 μg/mL, 5 mL, 5 μg). Solution C (1 μg/mL, 0.5 mL) was diluted with water (4.5 mL) to generate solution D (0.1 μg/mL, 5 mL, 0.5 μg). The testing sample (0.05 mg) was suspended in water (1 mL), and was sonicated for 5-30 min to dissolve the sample. If no clear solution was observed, the resulting suspension was centrifuged and the clear supernatant solution was collected for analysis. All the standard solutions A, B, C, D and sample solutions were tested using same method on the same LC-MS instrument. Solubility was assessed by LCMS and calculated based on a standard curve.

[2] = pH stability in buffers, determined by LC-MS; type: physicochemical
Protocol: pH stability was assessed as follows. 0.1 mg of sample was dissolved into 0.2-0.3 mL of DMSO, and the resulting solution was added dropwise into different pH buffers (1 mL) while maintain clear solutions during testing time period. The samples were collected from several time points (e.g., over 72 hours), and pH stability was determined by LC-MS. pH buffer was prepared as follows: pH 8.0 sodium borate buffer: Add 9.534 g Sodium borate decahydrate, 1.461 g Sodium chloride, and 0.393 g DTPA to 900 mL distilled water, make sure all powers dissolve completely, then make final volume to 1 L by adding water. pH 7.4 sodium borate buffer: Add […], 9.534 g Sodium borate decahydrate, 1.461 g Sodium chloride, and 0.393 g DTPA to 900 mL distilled water, make sure all powers dissolve completely, then make final volume to 1 L by adding water. pH 5.0 succinate acid buffer: Add 10 mM succinate acid to 150 mL distilled water, and then change the pH to pH5.0 by adding 0.5M NaOH, then make final volume to 250 mL by adding water. pH 7.4 PBS buffer: commercially available. Stability was assessed at 72 hours by LCMS.

[3] = target: Human liver Cathepsin B (Homo sapiens, UniProt P07858); test: Cathepsin B cleavage assay of linker-payloads
Protocol: For the assay, the linker-payload stock solution (10 mM of linker-payload in DMSO) was added into a solution of 100 mM NaOAc, 10 mM dithiothreitol, at pH5 to obtain a 50 μM substrate solution. […] The Cathepsin B and substrate solution was mixed with and without 10 mM of a Cathepsin B inhibitor (CA074; APE Bio, Cat #A1926), and incubated at 37° C. for 4 hours. Following the 4 hour incubation, acetic acid and then acetonitrile were added to stop the reaction. The quenched samples then underwent centrifugation at 14,000 rpm. Aliquots of the resultant supernatants were then diluted with equal volume of water and analyzed by LC/MS to determine the amount of payload released.

[4] = Solubility test in water, LCMS against standard curve
Protocol: as §1

[5] = pH7.4 and 8 buffer, RT, Table 3-1
[6] = Solubility (mg/mL), in water, Table 3
[7] = Solubility (mg/mL), in water, Table 3-1
[8] = pH7.4 or 8 buffer, room temperature, Table 3

SMILES: CC[C@H](C)[C@@H]([C@@H](CC(=O)N1CCC[C@H]1[C@H](OC)[C@@H](C)C(=O)N[C@H](C)[C@@H](O)c1ccccc1)OC)N(C)C(=O)[C@@H](NC(=O)[C@H](C(C)C)N(C)C(=O)OCc1ccc(NC(=O)[C@H](CCCNC(N)=O)NC(=O)[C@@H](NC(=O)[C@@H](CCCCNC(=O)COC2CCCCCc3c2nnn3CCOCCOCCOCCOCCOCCO)NC(=O)CCOCCOCCOCCOCCNC(=O)CCC(=O)N2Cc3ccccc3C#Cc3ccccc32)C(C)C)cc1)C(C)C (stereo partly shown) [1a] ({DBCO-Suc-PEG4}-[dK](X3)V[Cit][PABC][NMeV]V[Dil][Dolaproine]-X1)
- solubility [1]: 0.17 mg/mL (≈ 75.3 µM)
- pH Stability [2, 5]: Y (stable in pH7.4 and 8 buffer at RT for more than 3 days)

SMILES: CC(C)[C@H](NC(=O)[C@@H](CCCCNC(=O)COC1CCCCCc2c1nnn2CCOCCOCCOCCOCCC(=O)NCCS(=O)(=O)O)NC(=O)CCOCCOCCOCCOCCNC(=O)CCC(=O)N1Cc2ccccc2C#Cc2ccccc21)C(=O)N[C@@H](CCCNC(N)=O)C(=O)Nc1ccc(COC(=O)N[C@@H](CO)C(=O)Nc2ccc3c(c2)[C@@]2(C)CCC[C@](C)(C(=O)NC(=O)[C@@]4(C)CCC[C@]5(C)c6cc(O)ccc6CC[C@@H]45)[C@@H]2CC3)cc1 (stereo partly shown) [1q]
- CapB cleavage rate (%) at 4 hrs ([3]; Table 1D): 30.4%
- solubility [4]: 0.17 mg/mL (≈ 75.7 µM)
- pH Stability [2, 5]: Y (stable in pH7.4 and 8 buffer at RT for more than 3 days)

SMILES: CCCC1O[C@@H]2C[C@H]3[C@@H]4C[C@H](F)C5=CC(=O)C=C[C@]5(C)[C@@]4(F)[C@@H](O)C[C@]3(C)[C@]2(C(=O)COc2ccc(NC(=O)[C@H](CCCNC(N)=O)NC(=O)[C@@H](NC(=O)[C@@H](CCCCNC(=O)COC3CCCCCc4c3nnn4CCOCCOCCOCCOCCC(=O)NCCS(=O)(=O)O)NC(=O)CCOCCOCCOCCOCCNC(=O)CCC(=O)N3Cc4ccccc4C#Cc4ccccc43)C(C)C)cc2)O1 (stereo partly shown) [1k]
- CapB cleavage rate (%) at 4 hrs ([3]; Table 1C): 31.0%
- CapB cleavage rate (%) at 4 hrs ([3]; Table 1D): 31.0%
- solubility [4, 6]: > 1 mg/mL
- solubility [4, 7]: > 1 mg/mL
- pH Stability [2, 5]: Y (stable in pH7.4 and 8 buffer at RT for more than 3 days)
- pH Stability [2, 8]: Y (stable in pH7.4 or 8 buffer at room temperature for more than 3 days)

SMILES: CCCC1O[C@@H]2C[C@H]3[C@@H]4C[C@H](F)C5=CC(=O)C=C[C@]5(C)[C@@]4(F)[C@@H](O)C[C@]3(C)[C@]2(C(=O)CNC(=O)OCc2ccc(NC(=O)[C@H](CCCNC(N)=O)NC(=O)[C@@H](NC(=O)CCOCCOCCOCCOCCNC(=O)CCC(=O)N3Cc4ccccc4C#Cc4ccccc43)C(C)C)cc2)O1 (stereo partly shown) [10a]
- CapB cleavage rate (%) at 4 hrs ([3]; Table 1D): 18.6%
- solubility [4, 7]: 0.02 mg/mL (≈ 14.2 µM)
- pH Stability [2, 5]: Y (stable in pH7.4 and 8 buffer at RT for more than 3 days)

- CapB cleavage rate (%) at 4 hrs ([3]; Table 1C): 44.2%
- CapB cleavage rate (%) at 4 hrs ([3]; Table 1D): 44.2%
SMILES: CC(C)[C@H](NC(=O)[C@@H](CCCCNC(=O)COC1CCCCCc2c1nnn2CCOCCOCCOCCOCCC(=O)NCCS(=O)(=O)O)NC(=O)CCOCCOCCOCCOCCNC(=O)CCC(=O)N1Cc2ccccc2C#Cc2ccccc21)C(=O)N[C@@H](C)C(=O)Nc1ccc2c(c1)[C@@]1(C)CCC[C@](C)(C(=O)NC(=O)[C@@]3(C)CCC[C@]4(C)c5cc(O)ccc5CC[C@@H]34)[C@@H]1CC2 (stereo partly shown) [1m]

SMILES: CCCC1O[C@@H]2C[C@H]3[C@@H]4C[C@H](F)C5=CC(=O)C=C[C@]5(C)[C@@]4(F)[C@@H](O)C[C@]3(C)[C@]2(C(=O)COc2ccc(NC(=O)[C@H](C)NC(=O)[C@@H](NC(=O)[C@@H](CCCCNC(=O)COC3CCCCCc4c3nnn4CCOCCOCCOCCOCCC(=O)NCCS(=O)(=O)O)NC(=O)CCOCCOCCOCCOCCNC(=O)CCC(=O)N3Cc4ccccc4C#Cc4ccccc43)C(C)C)cc2)O1 (stereo partly shown) [1j]
- CapB cleavage rate (%) at 4 hrs ([3]; Table 1C): 30.8%
- CapB cleavage rate (%) at 4 hrs ([3]; Table 1D): 30.8%
- solubility [4, 6]: > 10 mg/mL
- solubility [4, 7]: > 10 mg/mL
- pH Stability [2, 5]: Y (stable in pH7.4 and 8 buffer at RT for more than 3 days)
- pH Stability [2, 8]: Y (stable in pH7.4 or 8 buffer at room temperature for more than 3 days)

SMILES: CCCC1O[C@@H]2C[C@H]3[C@@H]4C[C@H](F)C5=CC(=O)C=C[C@]5(C)[C@@]4(F)[C@@H](O)C[C@]3(C)[C@]2(C(=O)COc2ccc(NC(=O)OCc3ccc(NC(=O)[C@H](CCCNC(N)=O)NC(=O)[C@@H](NC(=O)CCOCCOCCOCCOCCNC(=O)CCC(=O)N4Cc5ccccc5C#Cc5ccccc54)C(C)C)cc3)cc2)O1 (stereo partly shown) [10c]
- CapB cleavage rate (%) at 4 hrs ([3]; Table 1D): <5%
- solubility ([1]; Solubility): < 0.01 mg/mL
- solubility ([1]; Solubility (mg/mL)): < 0.1 mg/mL
- pH Stability [2, 5]: Y (stable in pH7.4 and 8 buffer at RT for more than 3 days)

- solubility [4]: < 0.1 mg/mL
SMILES: CC(C)[C@H](NC(=O)CCOCCOCCOCCOCCNC(=O)CCC(=O)N1Cc2ccccc2C#Cc2ccccc21)C(=O)N[C@@H](C)C(=O)Nc1ccc2c(c1)[C@@]1(C)CCC[C@](C)(C(=O)NC(=O)[C@@]3(C)CCC[C@]4(C)c5cc(O)ccc5CC[C@@H]34)[C@@H]1CC2 [10b, 1-(4-{2-Azatricyclo[10.4.0.0^4,9]hexadeca-1(12),4(9),5,7,13,15-hexaen-10-yn-2-yl}-4-oxobutanamido)-N-[(1 S)-1-{[(1 S)-1-{[(4bS,8S,8aR)-8-{[(1 S,4aS,10aR)-6-hydroxy-1,4a-dimethyl-1,2,3,4,4a,9,10,10a-octahydrophenanthrene-1-carbonyl]carbamoyl}-4b,8-dimethyl-4b,5,6,7,8,8a,9,10-octahydrophenanthren-3-yl]carbamoyl}ethyl]carbamoyl}-2-methylpropyl]-3,6,9,12-tetraoxapentadecan-15-amide]

SMILES: CC[C@H](C)[C@@H]([C@@H](CC(=O)N1CCC[C@H]1[C@H](OC)[C@@H](C)C(=O)N[C@H](C)[C@@H](O)c1ccccc1)OC)N(C)C(=O)[C@@H](NC(=O)[C@H](C(C)C)N(C)C(=O)OCc1ccc(NC(=O)[C@H](CCCNC(N)=O)NC(=O)[C@@H](NC(=O)CCOCCOCCOCCOCCNC(=O)CCC(=O)N2Cc3ccccc3C#Cc3ccccc32)C(C)C)cc1)C(C)C [10d] ({DBCO-Suc-PEG4}-V[Cit][PABC][NMeV]V[Dil][Dolaproine]-X1)
- solubility [1]: < 0.1 mg/mL
- pH Stability [2, 5]: Y (stable in pH7.4 and 8 buffer at RT for more than 3 days)

SMILES: CC[C@H](C)[C@@H]([C@@H](CC(=O)N1CCC[C@H]1[C@H](OC)[C@@H](C)C(=O)N[C@H](C)[C@@H](O)c1ccccc1)OC)N(C)C(=O)[C@@H](NC(=O)[C@H](C(C)C)N(C)C(=O)OCc1ccc(NC(=O)[C@H](CCCNC(N)=O)NC(=O)[C@@H](NC(=O)[C@@H](CCCCNC(=O)COC2CCCCCc3c2nnn3CCOCCOCCOCCOCCC(=O)NCC[N+](C)(C)C)NC(=O)CCOCCOCCOCCOCCNC(=O)CCC(=O)N2Cc3ccccc3C#Cc3ccccc32)C(C)C)cc1)C(C)C (stereo partly shown) [Ib] ({DBCO-Suc-PEG4}-[dK](X4)V[Cit][PABC][NMeV]V[Dil][Dolaproine]-X1)
- CapB cleavage rate (%) at 4 hrs ([3]; Table 1D): 65%

SMILES: CCCC1O[C@@H]2C[C@H]3[C@@H]4C[C@H](F)C5=CC(=O)C=C[C@]5(C)[C@@]4(F)[C@@H](O)C[C@]3(C)[C@]2(C(=O)CNC(=O)OCc2ccc(NC(=O)[C@H](CCCNC(N)=O)NC(=O)[C@@H](NC(=O)[C@@H](CCCCNC(=O)COC3CCCCCc4c3nnn4CCN(CC(=O)NCCS(=O)(=O)O)CC(=O)NCCS(=O)(=O)O)NC(=O)CCOCCOCCOCCOCCNC(=O)CCC(=O)N3Cc4ccccc4C#Cc4ccccc43)C(C)C)cc2)O1 (stereo partly shown) [1f]
- CapB cleavage rate (%) at 4 hrs ([3]; Table 1C): 63.0%
- CapB cleavage rate (%) at 4 hrs ([3]; Table 1D): 63.0%

SMILES: CC[C@H](C)[C@@H]([C@@H](CC(=O)N1CCC[C@H]1[C@H](OC)[C@@H](C)C(=O)N[C@H](C)[C@@H](O)c1ccccc1)OC)N(C)C(=O)[C@@H](NC(=O)[C@H](C(C)C)N(C)C(=O)OCc1ccc(NC(=O)[C@H](CCCNC(N)=O)NC(=O)[C@@H](NC(=O)[C@@H](CCCCNC(=O)COC2CCCCCc3c2nnn3CCOCCOCCOCCOCCOCCP(=O)(O)O)NC(=O)CCOCCOCCOCCOCCNC(=O)CCC(=O)N2Cc3ccccc3C#Cc3ccccc32)C(C)C)cc1)C(C)C (stereo partly shown)
- CapB cleavage rate (%) at 4 hrs ([3]; Table 1D): 50%
- solubility [4, 7]: 0.25 mg/mL (≈ 108 µM)
- pH Stability [2, 5]: Y (stable in pH7.4 and 8 buffer at RT for more than 3 days)

SMILES: CCCC1O[C@@H]2C[C@H]3[C@@H]4C[C@H](F)C5=CC(=O)C=C[C@]5(C)[C@@]4(F)[C@@H](O)C[C@]3(C)[C@]2(C(=O)COc2ccc(NC(=O)OCc3ccc(NC(=O)[C@H](CCCNC(N)=O)NC(=O)[C@@H](NC(=O)[C@@H](CCCCNC(=O)COC4CCCCCc5c4nnn5CCOCCOCCOCCOCCC(=O)NCC[N+](C)(C)C)NC(=O)CCOCCOCCOCCOCCNC(=O)OC[C@@H]4[C@@H]5CCC#CCC[C@@H]54)C(C)C)cc3)cc2)O1 (stereo partly shown) [IIIe]
- solubility [4, 7]: > 10 mg/mL
- pH Stability [2, 5]: Y (stable in pH7.4 and 8 buffer at RT for more than 3 days)

SMILES: CCCC1O[C@@H]2C[C@H]3[C@@H]4C[C@H](F)C5=CC(=O)C=C[C@]5(C)[C@@]4(F)[C@@H](O)C[C@]3(C)[C@]2(C(=O)CNC(=O)OCc2ccc(NC(=O)[C@H](CCCNC(N)=O)NC(=O)[C@@H](NC(=O)[C@@H](CCCCNC(=O)COC3CCCCCc4c3nnn4CCOCCOCCOCCOCCC(=O)NCCS(=O)(=O)O)NC(=O)CCOCCOCCOCCOCCNC(=O)CCC(=O)N3Cc4ccccc4C#Cc4ccccc43)C(C)C)cc2)O1 (stereo partly shown) [1e]
- CapB cleavage rate (%) at 4 hrs ([3]; Table 1C): 79.6%
- CapB cleavage rate (%) at 4 hrs ([3]; Table 1D): 79.6%
- solubility [4, 6]: > 10 mg/mL
- solubility [4, 7]: > 10 mg/mL
- pH Stability [2, 5]: Y (stable in pH7.4 and 8 buffer at RT for more than 3 days)
- pH Stability [2, 8]: Y (stable in pH7.4 or 8 buffer at room temperature for more than 3 days)
